The test system of data set [1] is metastasis. The settings on record: literature (Sun et al. 2013; Smith et al. 2004); cited from earlier work.
The subject of data set [2] is VEGF. Nature of the data set: ELISA of VEGF expression in chondrosarcoma cells after transfection. In kind it is cell-based, human. Here is the method: (§1) Cell lines: Human primary chondrocytes and chondrosarcoma cell lines were cultured as previously described (Kulshreshtha et al., Cell Cycle. 2007; 6:1426-1431). CS-1 (a gift from Dr. Francis Hornicek, Harvard Medical School, Boston, Mass.) was cultured in Gibco RPMI 1640 Medium (Life Technologies, Grand Island, N.Y.), with 10% FBS in a humidified incubator (NuAire Inc, Plymouth, Minn.) under 5% CO2 and either normoxia (ambient oxygen) or hypoxia (2% O2)(11). CS-1 was derived from human grade III chondrosarcoma and metastasizes in a xenograft mouse model(Susa M, Morii T, Yabe H, Horiuchi K, Toyama Y, Weissbach L, et al. Alendronate inhibits growth of high-grade chondrosarcoma cells. Anticancer Res. 2009 June; 29(6):1879-88.). All cells were cultured in a humidified incubator (NuAire Inc, Plymouth, Minn., USA) under 5% CO2 and either normoxia or hypoxia (2% O2) (Lin et al., J Orthop Res. 2004; 22:1175-1181).
Transfections were performed with GenMute transfection reagent (SignaGen Laboratories, Gaithersburg, Md.). pmiRZIP lentivector expressing anti-miR-181a or control sequence (SBI, Mountain View, Calif.) was used for permanent miR-181a knockdown experiments. Transduction-ready FIV-based pseudoviral particles were generated using pPACK-H1 Lentivector Packaging System together with 293TN cell line (SBI), at a titer of 1.06×10^9 IFU/ml. Control was Lenti-scramble Hairpin control pseudoviral particles at a titer of 1×10^9 IFU/ml. Cells were cultured in 12-well plates at a density of 1×10^5/well for 1 day, infected by pseudoviral particles (using a multiplicity of infection of 100 viruses per cell) and cultured for 72 hrs, then selected for puromycin (5 μg/ml) resistance for stable cell lines. Stably transduced cells were used for vitro and in vivo experiments.
ELISA: Conditioned medium was obtained 72 hours after transfection. Soluble VEGF-165 and MMP1 were detected using VEGF and MMP1 Immunoassay kits (R&D Systems, Minneapolis, Minn.) according to manufacturer's instructions. VEGF-165 and MMP1 levels were measured two times for each condition and with normalization to the number of cells at the end of the culture period. Each experiment was repeated three times. Twenty mg of xenograft tumor tissue in RIPA buffer containing proteinase inhibitors (Roche) was homogenized on ice using TissueRuptor (Qiagen). Tissue lysates were centrifuge at 14000 rpm for 30 min, supernatant saved at −80° C. for later use. VEGF-165 levels in xenograft tumor lysates were normalized to total protein.
Background: In an ELISA, binding on a coated surface is turned into a signal by an enzyme label.

Data set [3] concerns VEGF. Nature of the data set: Angiogenesis antibody array in chondrosarcoma cells (VEGF). Conditions: vs miR control; FIG. 3. The class given is cell-based, human. Here is the method:
(§2) Angiogenesis antibody array: Human Angiogenesis Array Kit is a membrane-based sandwich immunoassay. Samples are mixed with a cocktail of biotinylated detection antibodies and then incubated with the array membrane which is spotted in duplicate with capture antibodies to specific target proteins. Captured proteins are visualized using chemiluminescent detection reagents. The signal produced is proportional to the amount of bound analyte. It is sensitive and economical tool to simultaneously detect the relative levels of 55 angiogenesis-related proteins in a single sample.

Data set [4] has as its system placental growth factor (PLGF). The data set can be described thus: Angiogenesis antibody array in chondrosarcoma cells (PLGF). The class given is cell-based, human. The settings on record: vs miR control; FIG. 3. The method, then:
as §2

For data set [5], the system named is thrombospondin-1 (TSP-1). Nature of the data set: Angiogenesis antibody array in chondrosarcoma cells (TSP-1). The class given is cell-based, human. Conditions: vs miR control; FIG. 3. The method, then:
as §2

The subject of data set [6] is Met. Nature of the data set: Western blot of Met protein in chondrosarcoma cells. The class given is cell-based, human. Conditions: vs miRNA control; FIG. 5. An excerpt: Western blot: Cell or tumor lysates containing forty μg of protein were separated via SDS-PAGE (Bio-Rad, Hercules, Calif.) and probed with antibodies for VEGF (VEGFA), MMP-1, SSX, and actin (Santa Cruz Biotechnology, Santa Cruz, Calif.). The fluorescent signals were detected using a fluorescently-labeled secondary goat anti-rabbit antibody (Alexa Fluor 680) (Molecular Probes, Eugene, Oreg.) and analyzed on Licor Odyssey Scanner (LI-COR Biosciences, Lincoln, Nebr.). Western Blot analyses were performed as previously described with specific antibodies (IMGNEX, San Diego, Calif.) and actin antibody (Santa Cruz Biotechnology, Santa Cruz, Calif.). Protein concentrations were determined using the Quick Start Bradford protein assay (Bio-Rad).
(In general: Immunoblotting shows a protein as a band on a membrane.)

The test system of data set [7] is chondrosarcoma cells. The data set can be described thus: CyQUANT cell proliferation assay. In kind it is cell-based, human. The method, then:
as §1
Cell proliferation assay: CyQUANT® Cell Proliferation Assay Kit according to manufacturer's protocol

For data set [8], the system named is SSX1. Nature of the data set: qRT-PCR of SSX1 mRNA in chondrosarcoma cells. The class given is cell-based, human. Conditions: 20 nM; vs control cells or anti-miR-34a; FIG. 10A. The method, then:
qRT-PCR: miR expression evaluated with qRT-PCR using Hs_miR-181a primer 5′-AACAUUCAACGCUGU-CGGUGAGU-3′ (SEQ ID NO:198) and 1280: 5′UCCCACCGCUGCCACCC-3′ (SEQ ID NO:199) (Qiagen). The comparative threshold cycle (Ct) method, i.e., 2-ΔΔCt method is used to calculate fold amplification. For quantification of mRNA, total RNA was isolated from chondrocytes, CS-1 cells, and xenograft mouse tumors using the RNAqueous® Kit (Ambion, Austin, Tex., USA). SYBR real-time PCR was carried out using two-step real-time qRT-PCR (Qiagen) with normalization to 18S rRNA (18S). The comparative threshold cycle (Ct) method, i.e., the 2-ΔΔCt method, was used for the calculation of fold amplification. Each experiment was evaluated with three PCR reactions and each experiment was repeated three times, the sample size necessary to maintain power at 0.80 to detect a 50% decrease with an alpha of 0.025 (one-tailed t-test).
ELISA, western blot, qRT-PCR, and cell proliferation assays were performed as described above.
On the technique in general: Quantitative PCR measures a nucleic acid by following its amplification.

The values that follow come from US11364258B2, “Methods for treating chondrosarcoma using microrna(miR)” (Rhode Island Hospital, priority 2016, dated 2022).

Consider `c1cc(CN2CCCNCCNCCCNCC2)ccc1CN1CCCNCCNCCCNCC1` [AMD3100, plerixafor], for which the metastasis in mice result in data set [1] is on record as “reduce metastasis”.
Turning to “miR-126: miScript miRNA mimic of miR-126; mature sequence SEQ ID NO: 188 CAUUAUUACUUUUGGUACGCG (listed as RNA, chemistry not given here)”, the “VEGF expression after transient transfection (ELISA)” value in data set [2] (20 nM miR-126, 80 nM anti-miR-126, normoxic and hypoxic conditions, FIG. 2 bottom) is listed as “reduced VEGF expression”. Besides, the “VEGF expression (ELISA)” value in data set [2] (10-80 nM of miR-126, normoxia and hypoxia (2% oxygen), FIG. 2 top) is “inhibited VEGF expression in a dose-dependent manner”. Besides, the “VEGF expression (angiogenesis antibody array)” value in data set [3] was “reduces the expression”. For the same compound, the “PLGF expression (angiogenesis antibody array)” value in data set [4] is “reduces the expression”. Also, in data set [5], the “TSP-1 expression (angiogenesis antibody array)” value is reported as “reduces the expression”. The “Met protein expression (western blot)” value in data set [6] is recorded as “expression of Met protein decreased”. In addition, the “chondrosarcoma cell growth over time” value in data set [7] (20 nM miR-126 vs control miR, FIG. 6) was “grew more slowly over time”.
Turning to “miR-34a: miR-34a mimic, the same sequence as miR-34a (guide AACAUUCAACGCUGUCGGUGAGU; synthetic mimic, further chemistry not given here)”, the “VEGF protein expression (ELISA, western blot)” value in data set [2] (20 nM, vs control miR, control anti-miR or anti-miR-34a, FIG. 7A-7C, p<0.02, n=3) is listed as “significantly decreased expression of VEGF protein”. The “VEGF expression over time (ELISA)” value in data set [2] (secreted VEGF, vs control miR, FIG. 8, p<0.001) is given as “decreased VEGF expression over time”. Also, the “chondrosarcoma cell growth rates over time” value in data set [7] (miR-34a vs control miR, FIG. 9, p<0.001) is on record as “significantly decreased growth rates over time”. Besides, in data set [8], the “SSX1 mRNA expression (qRT-PCR)” value is listed as “decreased SSX1 mRNA expression”.
